Results as given in ChEMBL document CHEMBL4842359, “1,3-Diarylpyrazolyl-acylsulfonamides as Potent Anti-tuberculosis Agents Targeting Cell Wall Biosynthesis in Mycobacterium tuberculosis” (J Med Chem, 2021).
In brackets after ≈: the same amount, converted by molar mass.

How the values were obtained:
[1] = Thermodynamic solubility of compound at pH 7.4 aqueous phosphate buffer
[2] = system: Mycobacterium tuberculosis; assay: microbe, parasite or virus in culture; conditions: H37Rv, 336 h
Description: Antimycobacterial activity against Mycobacterium tuberculosis H37Rv in presence of middlebrook 7H9/glucose/BSA/tyloxapol medium measured after 14 days by bioluminescence reporter assay

[3] = AUC (0 to t) in iv dosed C57BL/6 mouse measured up to 24 hrs by LC-MS/MS analysis; type: ADME, organism-based; parameters: time <=24; conditions: in vivo
[4] = Volume of distribution in iv dosed C57BL/6 mouse measured up to 24 hrs by LC-MS/MS analysis; type: ADME, organism-based; conditions: mouse, in vivo, 24 h
[5] = Lipophilicity, logD of the compound at pH 7.4 by HPLC-DAD analysis; type: physicochemical; conditions: buffer
[6] = Unbound clearance in iv dosed C57BL/6 mouse measured up to 24 hrs by LC-MS/MS analysis; type: ADME, organism-based; conditions: in vivo
[7] = Plasma protein binding in human assessed as unbound fraction at 5 uM by LC-MS/MS analysis; type: ADME, cell-free; conditions: 5 µM
[8] = Terminal half life in iv dosed C57BL/6 mouse measured up to 24 hrs by LC-MS/MS analysis; type: ADME, organism-based; conditions: mouse, in vivo, 24 h
[9] = Metabolic stability in rat liver microsomes assessed as compound remaining at 1 uM by LC-MS/MS analysis; type: ADME, Microsome; conditions: microsomes, 1 µM
[10] = Metabolic stability in mouse liver microsomes assessed as compound remaining at 1 uM by LC-MS/MS analysis; type: ADME, Microsome; conditions: microsomes, 1 µM
[11] = Metabolic stability in human liver microsomes assessed as compound remaining at 1 uM by LC-MS/MS analysis; type: ADME, Microsome; conditions: microsomes, 1 µM

SMILES | solubility thermodynamic [1] [µM] | MIC [2] [µM] | also measured
CS(=O)(=O)NC(=O)CCc1cc(-c2ccc(Br)cc2)nn1-c1ccc(Cl)cc1 | 200 (≈ 96.6 µg/mL) | 6.25 (≈ 3.02 µg/mL) | AUCt [3]: 1359 µmol·min/L; Vd [4]: 1 L/kg; logD [5]: 2.1; CL free [6]: 18.8 L/h/kg; Fu [7]: 0.01 fraction; beta t1/2 [8]: 3.6 h; Stabilty [9]: 87%; Stabilty [10]: 91%; Stabilty [11]: > 99%
CS(=O)(=O)NC(=O)CCCc1cn(-c2ccc(Br)cc2)nc1-c1ccc(Cl)cc1 | 135 (≈ 67.1 µg/mL) | 37 (≈ 18.4 µg/mL) | –
CC(CC(=O)NS(C)(=O)=O)c1cn(-c2ccc(Cl)cc2)nc1-c1ccncc1 (stereo unspecified) | 170 (≈ 71.2 µg/mL) | 50 (≈ 20.9 µg/mL) | –
CS(=O)(=O)NC(=O)NCc1cn(-c2ccc(Cl)cc2)nc1-c1ccc(Cl)cc1 | < 5 | 3.13 (≈ 1.38 µg/mL) | –
CS(=O)(=O)NC(=O)Cc1cn(-c2ccc(Br)cc2)nc1-c1ccc(Cl)cc1 | – | > 50 | –
O=C1NC(=O)C(Cc2cn(-c3ccc(Cl)cc3)nc2-c2ccc(Cl)cc2)C(=O)N1 | – | > 50 | –
O=c1[nH]nc(CCc2cn(-c3ccc(Br)cc3)nc2-c2ccc(Cl)cc2)o1 | < 5 | 19 (≈ 8.47 µg/mL) | –
CS(=O)(=O)NC(=O)CCc1cn(C2CCCCC2)nc1-c1ccc(Cl)cc1 | 200 (≈ 82 µg/mL) | > 50 | –
CS(=O)(=O)NC(=O)CCc1cn(-c2ccc(F)cc2)nc1-c1ccc(Cl)cc1 | 25 (≈ 10.5 µg/mL) | 37 (≈ 15.6 µg/mL) | –
CS(=O)(=O)NC(=O)CCc1sc(-c2ccc(Cl)cc2)nc1-c1ccc(Cl)cc1 | 90 (≈ 41 µg/mL) | 19 (≈ 8.65 µg/mL) | –
O=c1[nH]c(CCc2cn(-c3ccc(Br)cc3)nc2-c2ccc(Cl)cc2)no1 | < 5 | 50 (≈ 22.3 µg/mL) | –
CS(=O)(=O)NC(=O)CCc1cn(-c2cccc(Br)c2)nc1-c1ccc(Cl)cc1 | < 5 | > 50 | –
CS(=O)(=O)NC(=O)CCc1cc(-c2ccc(Br)cc2)n(-c2ccc(Cl)cc2)n1 | 170 (≈ 82.1 µg/mL) | > 50 | –
CN(C(=O)CCc1cn(-c2ccc(Br)cc2)nc1-c1ccc(Cl)cc1)S(C)(=O)=O | < 5 | > 50 | –
C[S+]([O-])c1ccc(-n2cc(CCC(=O)NS(C)(=O)=O)c(-c3ccc(Cl)cc3)n2)cc1 (stereo unspecified) | 200 (≈ 93.2 µg/mL) | ≥ 50 | –
CS(=O)(=O)NC(=O)CCc1cn(-c2ccc(C(F)(F)F)cc2)nc1-c1ccc(Cl)cc1 | 50 (≈ 23.6 µg/mL) | 3.1 (≈ 1.46 µg/mL) | –
CS(=O)(=O)NC(=O)CCc1cn(-c2ccc(Cl)cc2)nc1-c1ccccc1Cl | 90 (≈ 39.5 µg/mL) | > 50 | –
CS(=O)(=O)NC1=NOC(c2cn(-c3ccc(Cl)cc3)nc2-c2ccc(Cl)cc2)C1 (stereo unspecified) | 175 (≈ 79 µg/mL) | 25 (≈ 11.3 µg/mL) | –
CC(=O)NS(=O)(=O)CCc1cn(-c2ccc(Br)cc2)nc1-c1ccc(Cl)cc1 | 165 (≈ 79.7 µg/mL) | > 50 | –
CS(=O)(=O)NC(=O)CCc1cn(-c2ccc(Br)cc2)nc1-c1cccnc1 | 200 (≈ 89.9 µg/mL) | 6.25 (≈ 2.81 µg/mL) | AUCt [3]: 31 µmol·min/L; Vd [4]: 28.1 L/kg; logD [5]: 0.84; CL free [6]: 485.5 L/h/kg; Fu [7]: 0.022 fraction; beta t1/2 [8]: 1.7 h; Stabilty [9]: 95%; Stabilty [10]: 94%; Stabilty [11]: 37%
O=C(O)CCc1cn(-c2ccc(Br)cc2)nc1-c1ccc(Cl)cc1 | 155 (≈ 62.9 µg/mL) | > 50 | –
CS(=O)(=O)NC(=O)CCc1cn(-c2ccccc2Br)nc1-c1ccc(Cl)cc1 | 165 (≈ 79.7 µg/mL) | > 50 | –
CS(=O)(=O)NC(=O)CCc1cn(-c2ccc(Br)cc2)nc1-c1ccccc1 | 200 (≈ 89.7 µg/mL) | 2.3 (≈ 1.03 µg/mL) | –
CS(=O)(=O)NC(=O)/C=C/c1cn(-c2ccc(Cl)cc2)nc1-c1ccncc1 | 90 (≈ 36.3 µg/mL) | 4.7 (≈ 1.89 µg/mL) | AUCt [3]: 8.7 µmol·min/L; logD [5]: 0.98; CL free [6]: > 1200 L/h/kg; Fu [7]: 0.015 fraction; beta t1/2 [8]: 1.1 h; Stabilty [9]: 82%; Stabilty [10]: 85%; Stabilty [11]: 88%
CS(=O)(=O)NC(=O)CCc1cn(-c2ccccc2)nc1-c1ccc(Cl)cc1 | 200 (≈ 80.8 µg/mL) | > 50 | –
CS(=O)(=O)NC(=O)CCc1cn(-c2ccc(C(F)(F)F)nc2)nc1-c1ccc(Cl)cc1 | 90 (≈ 42.6 µg/mL) | 4.7 (≈ 2.22 µg/mL) | AUCt [3]: 134 µmol·min/L; Vd [4]: 8.7 L/kg; logD [5]: 1.87; CL free [6]: 112.3 L/h/kg; Fu [7]: 0.036 fraction; beta t1/2 [8]: 3 h; Stabilty [9]: 98%; Stabilty [10]: 94%; Stabilty [11]: 94%
CS(=O)(=O)NC(=O)NCc1cn(-c2ccc(C(F)(F)F)nc2)nc1-c1ccncc1 | 195 (≈ 85.9 µg/mL) | – | –
